# Data taken from patent US12059498B2, “Preparation and storage of liposomal RNA formulations suitable for therapy” (BioNTech SE, priority 2017, dated 2024).
# Entries after “also recorded” stand apart in the source; their conditions may differ.
# Test: Freezing of RNA lipoplexes with cryoprotectants, particle size
# Details: RNA lipoplexes frozen with increasing concentration of the compound
# From the text: Methods: Different compounds representative for monosaccharides (glucose and sorbitol), disaccharides (sucrose and trehalose), amino acids (arginine, prolin), triols (glycerin) as well as cryoprotectant systems containing mixtures of different sugars (mannitol and sucrose) were investigated in order to identify suited cryoprotectants (FIGS. 25 and 26). Therefore RNA lipoplexes were frozen in the presence of increasing concentration of these compounds. In order to identify minimum content of cryoprotectant at a certain concentration of NaCl, RNA lipoplexes were frozen in the presence of increasing amounts of sucrose or trehalose as representative cryoprotectants (Table 7). The samples were initially frozen a single time in order to determine the concentration range of cryoprotectant to be investigated in detail. In a third experiment, the efficacy of stabilization of the particle size was challenged by freezing of the RNA lipoplexes up to 10 times in the presence of the cryoprotectant trehalose (Table 8).
row,stabilization of RNA lipoplexes during freezing (as cryoprotectant),SMILES
1,can be used as cryoprotectants,OCC(O)CO [Glycerin]
2,clearly destabilizes the RNA lipoplexes,N=C(N)NCCC[C@H](N)C(=O)O [arginine]

row,SMILES,stabilization of RNA lipoplexes during freezing (as cryoprotectant)
1,OC[C@@H](O)[C@@H](O)[C@H](O)[C@@H](O)CO [sorbitol],can be used as cryoprotectants; also recorded: lower
